Test [1] relates to spontaneous colonic activity (distal colon segment). Kind of test: Inhibition of spontaneous colonic activity - in vitro. The note with it: Cavia porcellus; isolated distal colon, Krebs solution, 37° C.; read-out: IC50 (concentration of compound required to reduce spontaneous colonic activity by 50%). Also noted: species or system guinea-pig (male albino). The source says: Male albino guinea-pigs (300-400g) were killed by a blow to the back of the head and exsanguinated. A 2cm long segment of the proximal part of the hypogastric loop of the distal colon was rapidly dissected out and placed in oxygenated (95% O2, 5% CO2) modified warm Krebs solution. The tissue was cleaned out with Krebs and the adjoining mesentery discarded. Cotton was then tied to each end and the colon was attached to a tissue holder in an organ bath containing modified oxygenated Krebs solution at 37° C. The other end of the tissue was tied to an isometric transducer and placed under 1 g tension. Force developed by the muscle was detected by the transducer, and recorded on a multitrace pen recorder. Spontaneous colonic activity, as assessed by the contraction distance over a five minute period, was subjected to computer analysis.
The tissues were allowed to settle at a resting tension of 1 g for 1 hour, during which time they were washed at 15 minute intervals. Three samples of pre-dose activity were taken and averaged. The tissues were then dosed and two samples of post-dose activity were taken. The lowest value was used to calculate the percentage relaxation, and log dose response curves were constructed. The tissues were washed 10 minutes after dosing and left for 15 minutes to settle prior to the next control period.
The concentration of compound required to reduce spontaneous colonic activity by 50% is given as the IC50.

The subject of test [2] is U46619-induced bronchoconstriction. Kind of test: Bronchodilatation - In vivo (inhibition of U46619-induced bronchoconstriction in anaesthetised guinea-pigs). Also noted: species or system guinea-pig (Dunkin Hartley strain, male). The note with it: Cavia porcellus, iv; i.v. bolus; U46619 infused i.v. 2.5 nmol/min; peak inhibition; read-out: BD50 (dose of compound required to reduce the U46619-induced bronchoconstriction by 50%). As for the experimental part: Male guinea-pigs of the Dunkin Hartley strain (500-600g) were anaesthetised with Sagatal (pentobarbital sodium) (60 mg/kg). Airway resistance was measured using a modification of the classical Konzett-Rossler technique (J. pharm. Methods, 13, 309-315, 1985). U46619 (9,11-methanoepoxy-PGH2) was infused i.v. at a rate of 2.5 nmol/min, this produced a steady state of bronchoconstriction (approximately 120% increase from basal airway resistance). The compound under test was administered by i.v. bolus injection, and the subsequent peak inhibition of bronchoconstriction recorded.

For `CCCOc1ccccc1-c1nc(NC(=O)NC)cc(=O)[nH]1` [Example 5, 6-N'-methylureido-2-(2-propoxyphenyl)pyrimidin-4[3H]-one], in test [1], the IC50 was found to be 2400 nM. Also, the ED50 in test [2] was 8.34 µmol/kg.

In the case of `CCCOc1ccccc1-c1nc(O)cc(C(N)=O)n1` [Example 15, 6-Hydroxy-2-(2-propoxyphenyl)pyrimidine-4-carboxamide], the IC50 in test [1] was found to be 750 nM.

Turning to `CCCOc1ccccc1-c1nc(O)cc(C#N)n1` [Example 16, 4-cyano-6-hydroxy-2-(2-propoxyphenyl)pyrimidine], the ED50 in test [2] turned out to be 6.03 µmol/kg.

Take `CCCOc1ccccc1-c1nc(O)cc(CC)n1` [Example 18, 4-Ethyl-6-hydroxy-2-(2-propoxyphenyl)pyrimidine]: the IC50 in test [1] was determined as 3300 nM. Moreover, in test [2], the ED50 is 9.7 µmol/kg.

`CCCOc1ccccc1-c1nc(O)cc(C(=O)NCC)n1` [Example 21, N-Ethyl 6-hydroxy-2-(2-propoxyphenyl)pyrimidine-4-carboxamide]: in test [1], the IC50 was found to be 3700 nM.

The values are drawn from patent US5118686A, “Phenylpyrimidones” (Smith Kline & French Laboratories Limited, priority 1989, dated 1992).
